# Measured values published in ChEMBL document CHEMBL4706653, “Ultra-short lipopeptides against gram-positive bacteria while alleviating antimicrobial resistance” (Eur J Med Chem, 2021).
# The source made the active and inactive calls. The calls are words filed in the database; no cut-off is given here. Positions of bridges follow the written chain, without caps; N, C: chain ends. Non-standard residues stand in square brackets, D forms with d. Residues, ends and D or L forms follow the SMILES beside them. *: point of attachment. Myristoyl = CCCCCCCCCCCCCC(=O)*; Decanoyl = CCCCCCCCCC(=O)*; X1 = CC[C@H](C)CCCCC(=O)*; Octanoyl = CCCCCCCC(=O)*; Dab = NCC[C@H](N)C(=O)O
# Key:
# [1] = system: Staphylococcus aureus; experiment: Antimicrobial activity against methicillin-resistant Staphylococcus aureus 113 after 18 hrs by broth microdilution method; type: functional
# [2] = system: Staphylococcus aureus; experiment: Antimicrobial activity against Staphylococcus aureus ATCC 25923 after 18 hrs by broth microdilution method; type: functional
# [3] = system: Cell membrane; experiment: Induction of membrane disruption in Staphylococcus aureus ATCC 25923 assessed as PI-positive cells at 4 times MIC measured after 2 hrs by propidium iodide staining based flow cytometry relative to control
# [4] = system: Cell membrane; experiment: Induction of cytoplasmic membrane disruption in Staphylococcus aureus ATCC 25923 measured for 15 mins by DiSC3-5 dye based fluorescence assay
# [5] = system: Staphylococcus epidermidis; experiment: Antimicrobial activity against Staphylococcus epidermidis ATCC 12228 at 0.5 times MIC after 15 passages by broth microdilution method; type: functional, organism-based
# [6] = Toxicity in BALB/c mouse assessed as swelling of renal tubular epithelial cells at 80 mg/kg, ip administered as single dose measured after 5 days; type: organism-based; conditions: in vivo, 120 h, time 5 day
# [7] = Toxicity in BALB/c mouse assessed as congestion in liver at 20 mg/kg, ip administered as single dose measured after 5 days; type: organism-based; conditions: in vivo, 120 h, time 5 day
# [8] = system: Staphylococcus aureus; experiment: Antimicrobial activity against Staphylococcus aureus ATCC 25923 assessed as bacterial killing preincubated for 4 hrs followed by replating on MHB agar and measured after 24 hrs by time kill assay; type: functional, organism-based; conditions: time 28.0 hrs
# [9] = Toxicity in BALB/c mouse assessed as death at 20 to 80 mg/kg, ip administered as single dose measured within 30 mins; type: organism-based; conditions: in vivo, 0.5 h, dose 20-80 mg/kg
# [10] = Toxicity in BALB/c mouse assessed as immobility at 20 to 80 mg/kg, ip administered as single dose measured within 30 mins; type: organism-based; conditions: in vivo, 0.5 h, dose 20-80 mg/kg
# [11] = system: Staphylococcus aureus; experiment: Induction of nucleic acid leakage in Staphylococcus aureus ATCC 25923 at 4 times MIC; type: functional
# [12] = system: Cell membrane; experiment: Induction of membrane disruption in Staphylococcus aureus ATCC 25923 assessed as PI-positive cells at 2 times MIC measured after 2 hrs by propidium iodide staining based flow cytometry relative to control
# [13] = Toxicity in BALB/c mouse assessed as eosinophilic mass in the renal tubular lumen at 80 mg/kg, ip administered as single dose measured after 5 days; type: organism-based; conditions: in vivo, 120 h, time 5 day
# [14] = Toxicity in BALB/c mouse assessed as liver cell lysis at 80 mg/kg, ip administered as single dose measured after 5 days; type: organism-based; conditions: in vivo, 120 h, time 5 day
# [15] = Toxicity in BALB/c mouse assessed as ruffled fur at 20 to 80 mg/kg, ip administered as single dose measured within 30 mins; type: organism-based; conditions: in vivo, 0.5 h, dose 20-80 mg/kg
# [16] = Toxicity in BALB/c mouse assessed as vacuoles in liver cytoplasm at 20 mg/kg, ip administered as single dose measured after 5 days; type: organism-based; conditions: in vivo, 120 h, time 5 day
# [17] = system: Cell membrane; experiment: Induction of membrane disruption in Staphylococcus aureus ATCC 25923 measured after 2 hrs by propidium iodide staining based confocal laser scanning microscopic analysis; type: subcellular
# [18] = system: Staphylococcus aureus; experiment: Antibiofilm activity against Staphylococcus aureus ATCC 25923 at 0.5 to 8 uM after 24 hrs by crystal violet staining based assay; type: functional, organism-based; conditions: dose 0.5-8 µM
# [19] = system: Bacillus subtilis; experiment: Antimicrobial activity against Bacillus subtilis ATCC 23857 after 18 hrs by broth microdilution method; type: functional
# [20] = Toxicity in BALB/c mouse assessed as inflammatory cell infiltration in kidney at 80 mg/kg, ip administered as single dose measured after 5 days; type: organism-based; conditions: in vivo, 120 h, time 5 day
# [21] = system: Staphylococcus aureus; experiment: Antimicrobial activity against Staphylococcus aureus ATCC 29213 after 18 hrs by broth microdilution method; type: functional
# [22] = Toxicity in BALB/c mouse assessed as death at 20 mg/kg, ip administered as single dose measured within 24 hrs; type: organism-based; conditions: in vivo
# [23] = system: Lipopolysaccharide (LPS); experiment: Binding affinity to LPS (unknown origin) assessed as bacterial killing at 2 times MIC preincubated for 1 hr followed by Staphylococcus aureus ATCC 25923 addition and measured after 2 hrs by colony counting method; conditions: time 3.0 hrs
# [24] = system: Staphylococcus aureus; experiment: Induction of reactive oxygen species generation in Staphylococcus aureus ATCC 25923 by […] dye based fluorescence assay; type: functional, organism-based
# [25] = system: Staphylococcus aureus; experiment: Antimicrobial activity against Staphylococcus aureus ATCC 25923 at 0.5 times MIC after 15 passages by broth microdilution method; type: functional, organism-based
# [26] = Toxicity in BALB/c mouse assessed as congestion in kidney at 40 mg/kg, ip administered as single dose measured after 5 days; type: organism-based; conditions: in vivo, 120 h, time 5 day
# [27] = system: Staphylococcus aureus; experiment: Antimicrobial activity against methicillin-resistant Staphylococcus aureus 75 after 18 hrs by broth microdilution method; type: functional
# [28] = Toxicity in BALB/c mouse assessed as inflammatory cell infiltration in liver at 20 mg/kg, ip administered as single dose measured after 5 days; type: organism-based; conditions: in vivo, 120 h, time 5 day
# [29] = Binding affinity to LTA (unknown origin) assessed as bacterial killing at 2 times MIC preincubated for 1 hr followed by Staphylococcus aureus ATCC 25923 addition and measured after 2 hrs by colony counting method; conditions: time 3.0 hrs
# [30] = system: Staphylococcus epidermidis; experiment: Antimicrobial activity against Staphylococcus epidermidis ATCC 12228 after 18 hrs by broth microdilution method; type: functional
# [31] = system: Staphylococcus aureus; experiment: Antibiofilm activity against ciprofloxacin-resistant Staphylococcus aureus ATCC 25923 at 0.5 to 8 uM after 24 hrs by crystal violet staining based assay; type: functional, organism-based; conditions: dose 0.5-8 µM
# [32] = Therapeutic index, ratio of MHC for mouse RBC to geometric mean of peptide MIC for Staphylococcus epidermidis ATCC 12228; type: toxicity; conditions: pooled result: one value given for 6 cell lines, strains, targets or settings, read-out: TI
# [33] = system: Erythrocyte; experiment: Hemolytic activity against mouse erythrocytes measured after 1 hr; type: ADME, cell-based
smiles,measurement,setting,value
CC[C@H](C)CCCCC(=O)N[C@@H](CCN)C(=O)N[C@H](C(=O)N[C@@H](CCN)C(=O)N[C@H]1CCNC(=O)[C@H]([C@@H](C)O)NC(=O)[C@H](CCN)NC(=O)[C@H](CCN)NC(=O)[C@H](CC(C)C)NC(=O)[C@@H](Cc2ccccc2)NC(=O)[C@H](CCN)NC1=O)[C@@H](C)O (X1-[Dab]T[Dab][Dab][Dab][dF]L[Dab][Dab]T; lactam 4-C),MIC,[1],8 µM
same,MIC,[2],16 µM
same,Activity,[3],84.8%
same,Activity,[4],inactive
same,Activity,[5],Active
same,Activity,[6],Toxic
same,Activity,[7],Toxic
same,Activity,[8],inactive
same,Activity,[9],Toxic
same,Activity,[10],Toxic
same,Activity,[11],inactive
same,Activity,[12],68%
same,Activity,[13],Toxic
same,Activity,[14],Toxic
same,Activity,[15],Toxic
same,Activity,[16],Toxic
same,Activity,[17],inactive
same,Activity,[18],Active
same,MIC,[19],8 µM
same,Activity,[20],Toxic
same,MIC,[21],16 µM
same,Activity,[22],Toxic
same,Activity,[23],Active
same,Activity,[24],Active
same,Activity,[25],Active
same,Activity,[26],Toxic
same,MIC,[27],8 µM
same,Activity,[28],Toxic
same,Activity,[29],Active
same,MIC,[30],8 µM
same,Activity,[31],Active
CCCCCCCCCCCCCC(=O)N[C@@H](CCCNC(=N)N)C(=O)N[C@@H](Cc1c[nH]c2ccccc12)C(=O)N[C@@H](CCCNC(=N)N)C(N)=O (Myristoyl-Arg-Trp-Arg-NH2),MIC,[1],4 µM
same,MIC,[2],8 µM
same,selectivity ratio,[32],10.7
same,MIC,[19],8 µM
same,MIC,[21],8 µM
same,MHC10,[33],64 µM
same,MIC,[27],4 µM
same,MIC,[30],4 µM
CCCCCCCC(=O)N[C@@H](Cc1c[nH]c2ccccc12)C(=O)N[C@@H](CCCNC(=N)N)C(=O)N[C@@H](CCCNC(=N)N)C(N)=O (Octanoyl-Trp-Arg-Arg-NH2),MIC,[1],128 µM
same,MIC,[2],128 µM
same,selectivity ratio,[32],5.65
same,MIC,[19],64 µM
same,MIC,[21],128 µM
same,MHC10,[33],> 256 µM
same,MIC,[27],64 µM
same,MIC,[30],32 µM
CCCCCCCCCC(=O)N[C@@H](CCCNC(=N)N)C(=O)N[C@@H](Cc1c[nH]c2ccccc12)C(=O)N[C@@H](CCCNC(=N)N)C(N)=O (Decanoyl-Arg-Trp-Arg-NH2),MIC,[1],16 µM
same,MIC,[2],16 µM
same,selectivity ratio,[32],3.43
same,MIC,[19],16 µM
same,MIC,[21],32 µM
same,MHC10,[33],> 256 µM
same,MIC,[27],16 µM
same,MIC,[30],16 µM
